Measured values: US8143223B2, “Cytoprotection by means of phosphotyrosine” (Eberhard-Karls-Universitaet Tuebingen Universitaetsklinikum, priority 2001, dated 2012)

Columns and labels:
[1] = test system: untransformed fibroblasts (HSF1); assay: Clonogenic assay comparing the radioprotective effect of phosphorylated amino acids, 4 Gy; format: cell-based, human; conditions: 10 μM for 16 hours, then 4 Gy ionizing irradiation, FIG. 3
[2] = test system: normal skin fibroblasts (HSF6); assay: Clonogenic assay after P-Tyr pretreatment alone, no cell-damaging treatment; format: cell-based, human; conditions: P-Tyr alone for 16 hours at up to 2000 μM, FIG. 2A
Protocol: Human fibroblasts (cell strains HSF1 and HSF6, which are derived from human skin, passages 9 to 15; CCD32, which is derived from embryonic lung tissue, passages 9 to 11) are particularly well suited for investigating the cytoprotective properties of the phosphotyrosine.
The cells are cultured in Dulbecco's modified Eagle's medium (DMEM) supplemented with 10% fetal calf serum (FCS) (GIBCO/BRL, Eggenstein, Germany, article No. 40G7285K) (=normal medium), under standard conditions. […]
(§1) In this connection, a colony is a mass of cells which develops, during the 14 days of culture, from a single cell as a result of consecutive cell divisions. […] If many cells die during the treatment with the cell-damaging factors, only a few colonies are then formed after 14 days; if many cells survive, many colonies can then be counted after the 14 days of culture. […]
(§2) After the 14 days of culture, the cells are fixed, stained and counted as described (Dittmann et al., 1995, loc. cit.). When determining clonogenic survival, the colonies containing more than 50 cells are counted per plate. […]
(§3) The result of such a clonogenic assay is expressed as “relative cytoprotection” or in “% number of the clones”, with the number of the colonies formed in the different assays being related to each other. […]

[3] = test system: transformed fibroblast cell line HH4dd; assay: as above; format: cell-based, human; conditions: FIG. 2A
Excerpt: Transformed human fibroblasts, e.g., the cell line HH4dd (is derived from human skin, passages 65 to 70), are also suitable for the investigation. This cell line is derived from the normal cell strain HH4 and is likewise characterized by a p53 mutation (Dittmann et al., “The radioprotective effect of BBI is associated with the activation of DNA-repair relevant genes”, Int. J. Radiat. Biol. 74, pages 225-230, 1998). HH4dd grows in soft agar, is characterized by its aneuploidy and induces tumors in nude mice. […]
as §1, §2, §3

[4] = test system: normal skin fibroblasts (HSF6); assay: Clonogenic assay after P-Tyr pretreatment and ionizing irradiation at 4 Gy, different P-Tyr doses; format: cell-based, human; conditions: FIG. 2B
Protocol: (§4) For the radioactive irradiation, the cells are irradiated with 4 MV photons using a “Linac” (Mevatron^60/Siemens, Erlangen, Germany) using a dose rate of 2 Gy/min at room temperature, as described (Dittmann et al. “Bowman-Birk Proteinase inhibitor modulates radiosensitivity and radiation-induced differentiation of human fibroblasts in culture”, Radiother. Oncol. 34, pages 137-143, 1995).
(§5) The cells, which are cultured as described in Example 1 and which are either incubated with the cell-damaging factors as described in Example 2 or remain untreated as controls, are freed from medium, washed and detached from the substrate using 0.05% trypsin and 0.1% EDTA. For the purpose of analyzing colony formation, the detached cells are plated at a constant cell density of 1500 cells per 78 cm^2 dish. […]
as §1, §2

[5] = test system: transformed HH4dd fibroblasts; assay: as above; format: cell-based, human; conditions: FIG. 2B
Protocol: as §4, §5, §1, §2

[6] = test system: normal lung fibroblasts (CCD32); assay: Clonogenic assay after P-Tyr pretreatment and ionizing irradiation at 0 to 6 Gy; format: cell-based, human; conditions: 10 μM P-Tyr for 16 hours, up to 6 Gy, FIG. 4
Protocol: as §4, §5, §1, §2

[7] = test system: normal skin fibroblasts (HSF6); assay: as above; format: cell-based, human; conditions: 10 μM P-Tyr for 16 hours, up to 6 Gy, FIG. 4
Protocol: as §4, §5, §1, §2

[8] = test system: HTB-35 squamous carcinoma cell line; assay: as above; format: cell-based, human; conditions: 10 μM P-Tyr for 16 hours, FIG. 4
Excerpt: (§6) In addition, it is possible to use the human squamous carcinoma cell lines HTB-35 (ATCC, which is derived from a cervical carcinoma, passage unknown, used in passage 10 after receipt) (Srivastava et al., “The status of the p53 gene in human papilloma virus positive or negative cervical carcinoma cell lines”, Carcinogenesis 13, pages 1273-1275, 1992) and HTB-43 (ATCC, is derived from a hypopharyngeal tumor, passage 124). Both carcinoma cell lines are characterized by a point mutation in the p53 gene (Kim et al., “State of p53, Rb and DCC tumor suppressor genes in human oral cancer cell lines”, Anticancer Research, pages 1405-1413, 1993). […]
as §1, §2

[9] = test system: HTB-43 squamous carcinoma cell line; assay: as above; format: cell-based, human; conditions: 10 μM P-Tyr for 16 hours, FIG. 4
Excerpt: as §6, §1, §2

[10] = test system: normal, untransformed fibroblasts (HSF1); assay: Clonogenic assay after P-Tyr pretreatment and UVB irradiation; format: cell-based, human; conditions: 10 μM P-Tyr for 16 hours, then 200 J of UVB, assayed 7 hours later, FIG. 5A
Protocol: (§7) The cells are irradiated with UV light (312 nm) at a dose rate of 450 J/m^2 per minute using a UVB lamp (Bioblock Scientific, Illkirch Cedex, France).
(§8) The cells, which are cultured as described in Example 1 and which are either incubated with the cell-damaging factors as described in Example 2 or remain untreated as controls, are freed from medium, washed and detached from the substrate using 0.05% trypsin and 0.1% EDTA. For the purpose of analyzing colony formation, the detached cells are plated at a constant cell density of 1500 cells per 78 cm^2 dish. The plated cells were then incubated for 14 days in normal medium additionally containing 20% FCS. This period of time enabled colony formation to take place.
(§9) In this connection, a colony is a mass of cells which develops, during the 14 days of culture, from a single cell as a result of consecutive cell divisions. This colony is also termed a clone. […] If many cells die during the treatment with the cell-damaging factors, only a few colonies are then formed after 14 days; if many cells survive, many colonies can then be counted after the 14 days of culture. […]
as §2

[11] = test system: transformed fibroblasts (HH4dd); assay: as above; format: cell-based, human; conditions: 10 μM P-Tyr for 16 hours, then 200 J of UVB, FIG. 5B
Protocol: as §7, §8, §9, §2

[12] = test system: normal, untransformed fibroblasts (HSF1); assay: Clonogenic assay after P-Tyr pretreatment and cisplatin treatment; format: cell-based, human; conditions: 10 μM P-Tyr for 16 hours, then 1 μg of cisplatin/ml for one hour, versus cells not pretreated, FIG. 6A
Protocol: (§10) The incubation with cisplatin take place at a concentration of 1 μg of cisplatin/ml (cis-diammine platinum(II-dichloride); Sigma, Munich, Germany).
as §8, §9, §2

[13] = test system: transformed fibroblasts (HH4dd); assay: as above; format: cell-based, human; conditions: 10 μM P-Tyr for 16 hours, then 1 μg of cisplatin/ml for one hour, FIG. 6B
Protocol: as §10, §8, §9, §2

[14] = Inventors' investigations of the concentration range of the cytoprotective effect; format: cell-based; conditions: investigations carried out by the inventors
Protocol: In the culture medium according to the invention it is preferred to use phosphotyrosine in a concentration range of from 1 to 100 μM. Thus, investigations carried out by the inventors have shown that the cytoprotective effect of the phosphotyrosine is particularly high in this range.

[15] = test system: human breast and kidney carcinoma cells; conditions: Mishra and Hamburger 1993; P-Tyr dose-dependent; run at 1.67 mM, some at 16.7 mM; cited from earlier work
[16] = test system: liver carcinoma cell line and arc-transformed NIH 3T3 cells; conditions: Mishra and Hamburger, Cancer Letters 1996; cited from earlier work

SMILES	radioprotection (clonogenic assay) [1]	effect on clonogenic survival [2]	effect on clonogenic survival [3]	P-Tyr concentration at which maximum survival was achieved ([4]; ionizing irradiation at 4 Gy) [µM]	clonogenic survival after ionizing irradiation ([4]; phosphotyrosine plus ionizing irradiation at 4 Gy)	clonogenic survival after ionizing irradiation ([5]; transformed HH4dd fibroblasts, same treatment)	toxicity of the radiation ([5]; transformed fibroblasts, 2000 pM P-Tyr)	clonogenic survival after ionizing irradiation [6]	clonogenic survival after ionizing irradiation [7]	clonogenic survival after ionizing irradiation [8]	clonogenic survival after ionizing irradiation [9]	increase in clonogenic survival after UVB irradiation [10] [%]	effect on clonogenic survival after UVB irradiation [11]	increase in clonogenic survival after cisplatin incubation [12] [%]	clonogenic survival after cisplatin treatment [13]	concentration range in which the cytoprotective effect is particularly high [14] [µM]	growth of human breast and kidney carcinoma cells [15]	cell growth of liver carcinoma cell line and arc-transformed NIH 3T3 cells [16]
C[C@@H](OP(=O)(O)O)[C@H](N)C(=O)O [P-Thr, phosphothreonine, reference compound]	did not result in any radioprotection	–	–	–	–	–	–	–	–	–	–	–	–	–	–	–	–	–
N[C@@H](Cc1ccc(OP(=O)(O)O)cc1)C(=O)O [P-Tyr, O-phospho-L-tyrosine (L-3-[4-hydroxy-phenyl]alanine-4′-phosphate)]	significant radioprotection	does not have any effect on the clonogenic survival	no effect was seen on clonogenic survival	10	clear increase in clonogenic survival	no increase in clonogenic survival was observed	significant increase in the toxicity of the radiation	significant increase in clonogenic survival	significant increase in clonogenic survival	significant reduction in clonogenic survival	significant reduction in clonogenic survival	37	no effect on the clonogenic survival	38.7	did not lead to any increase in clonogenic survival	1 to 100	inhibits the growth	inhibit cell growth
